Literature values, collected in article PMC6437649 (Molecular Pharmaceutics, 2019).

C#C[C@]1(O)CC[C@H]2[C@@H]3CCC4=Cc5oncc5C[C@]4(C)[C@H]3CC[C@@]21C [danazol]
log P: 4.9
